From patent US20130184257A1, “PIPERIDINYL-SUBSTITUTED LACTAMS AS GPR119 MODULATORS” (priority 2010, published 2013)

Test system: modified version of the GPR119 receptor (94% identity to human receptor) stably expressed in HEK-293 cells
Assay: cAMP Production Assay (LANCE cAMP kit, TR-FRET)
Type: cell-based
Settings: for cAMP production in HEK-293 cells: HEK-293 cells expressing modified GPR119, test compounds 0.2 nM to 10 μM, one-hour incubation at ambient temperature; for Fold over baseline: increase in cAMP relative to basal levels, 1.5-fold or greater = agonist activity
Experimental: The assay utilized HEK-293 cells that stably express a modified version of the GPR119 receptor (94% identity to human receptor), under the control of a CMV promoter containing a tet-on element for tetracycline-inducible expression. GPR119 agonist-induced cyclic AMP (cAMP) production was measured in this cell line using the LANCE cAMP kit (Perkin Elmer, Waltham, Mass.). To generate a working stock of cells for the assay, cells were treated overnight with 1 μg/mL doxycycline at 37° C. in the presence of 5% CO2 to induce receptor expression. Cells were then harvested by enzymatic dissociation with 0.05% trypsin, resuspended in freezing medium (DMEM growth medium with 10% each of fetal bovine serum and DMSO), aliquoted and frozen at −80° C. On the day of the assay, frozen cells were thawed, washed 1× in PBS and resuspended in Hank's buffered salt solution (HBSS) containing 5 mM HEPES, 0.1% BSA and Alexa Fluor 647-conjugated anti-cAMP antibody (diluted 1:100). The cell suspension was then transferred to a Proxiplate Plus white 384-well assay plate (Perkin-Elmer) at 2000 cells/well. Test compounds at final concentrations ranging from 0.2 nM to 10 μM were added to the assay plate, followed by a one-hour incubation at ambient temperature (volume=10 μL/well). DMSO concentration was held constant at 0.5%. After incubation with test compounds, 10 μL of a detergent buffer containing a biotinylated cAMP/Europium-conjugated streptavidin complex (Europium-labeled cAMP tracer) were added to each well on the assay plate, followed by a 2-hour incubation at ambient temperature. During this incubation cAMP released from lysed cells competes with the Europium-labeled cAMP tracer for binding to the Alexa Fluor 647-conjugated antibody. […] Cellular cAMP levels were then determined by interpolation of raw signal data using a cAMP standard curve. Compounds were determined to have agonist activity if they stimulated a 1.5-fold or greater increase in cAMP relative to basal levels.

SMILES	cAMP production in HEK-293 cells	Fold over baseline
CS(=O)(=O)c1cc(F)c(O[C@H]2CCN(C3CCN(c4nc(C(F)(F)F)no4)CC3)C2=O)cc1F [Example 11, (S)-1-(1-(3-trifluoromethyl-1,2,4-oxadiazol-5-yl)piperidin-4-yl)-3-(2,5-difluoro-4-(methylsulfonyl)phenoxy)pyrrolidin-2-one]	13.5 nmol	4.0
CS(=O)(=O)c1cc(F)c(N[C@H]2CCN(C3CCN(c4noc(C(F)F)n4)CC3)C2=O)cc1F [Example 30, (S)-3-(2,5-difluoro-4-(methylsulfonyl)phenylamino)-1-(1-(5-(difluoromethyl)-1,2,4-oxadiazol-3-yl)piperidin-4-yl)pyrrolidin-2-one]	7.5 nmol	3.1
CC(F)(F)c1nc(N2CCC(N3CC[C@H](Nc4cc(F)c(S(C)(=O)=O)cc4F)C3=O)CC2)no1 [Example 64, (S)-3-((2,5-difluoro-4-(methylsulfonyl)phenyl)amino)-1-(1-(5-(1,1-difluoroethyl)-1,2,4-oxadiazol-3-yl)piperidin-4-yl)pyrrolidin-2-one]	15.8 nmol	3.3
CS(=O)(=O)c1cc(F)c(N[C@H]2CCCN(C3CCN(c4noc(C(F)F)n4)CC3)C2=O)cc1F [Example 33, (S)-3-(2,5-difluoro-4-(methylsulfonyl)phenylamino)-1′-(5-(difluoromethyl)-1,2,4-oxadiazol-3-yl)-1,4′-bipiperidin-2-one]	10.1 nmol	2.5
CS(=O)(=O)c1cc(F)c(O[C@@H]2CCN(C3CCN(c4noc(C(F)(F)F)n4)CC3)C2=O)cc1F (single isomer, unassigned) [Example 66]	8.7 nmol	2.7
CCCc1nc(N2CCC(N3CC[C@H](Nc4ccc(S(C)(=O)=O)cc4F)C3=O)CC2)no1 [Example 37]	12.2 nmol	3.7
CC(C)c1noc(N2CCC(N3CC[C@@H](Oc4cc(F)c(S(C)(=O)=O)cc4F)C3=O)CC2)n1 [Example 4, (R)-3-(2,5-difluoro-4-(methylsulfonyl)phenoxy)-1-(1-(3-isopropyl-1,2,4-oxadiazol-5-yl)piperidin-4-yl)pyrrolidin-2-one]	18.7 nmol	3.9
CC(C)c1nc(N2CCC(N3CC[C@H](Nc4ccc(S(C)(=O)=O)cc4F)C3=O)CC2)no1 [Example 15, (S)-3-(2-fluoro-4-(methylsulfonyl)phenylamino)-1-(1-(5-isopropyl-1,2,4-oxadiazol-3-yl)piperidin-4-yl)pyrrolidin-2-one]	20.8 nmol	3.8
CS(=O)(=O)c1ccc(N[C@H]2CCN(C3CCN(c4noc(C5CCCC5)n4)CC3)C2=O)c(F)c1 [Example 43, (S)-1-(1-(5-cyclopentyl-1,2,4-oxadiazol-3-yl)piperidin-4-yl)-3-(2-fluoro-4-(methylsulfonyl)-phenylamino)-pyrrolidin-2-one]	14.7 nmol	3.6
CC(F)(F)c1nc(N2CCC(N3CCC[C@H](Nc4cc(F)c(S(C)(=O)=O)cc4F)C3=O)CC2)no1 [Example 48, (S)-3-(2,5-difluoro-4-(methylsulfonyl)phenylamino)-1′-(5-(1,1-difluoroethyl)-1,2,4-oxadiazol-3-yl)-1,4′-bipiperidin-2-one]	8.4 nmol	2.3
CS(=O)(=O)c1ccc(N[C@H]2CCN(C3CCN(c4noc(C(F)F)n4)CC3)C2=O)c(F)c1 [Example 21, (S)-1-(1-(5-(difluoromethyl)-1,2,4-oxadiazol-3-yl)piperidin-4-yl)-3-(2-fluoro-4-(methylsulfonyl)phenylamino)pyrrolidin-2-one]	21.0 nmol	2.8
CC(F)(F)c1noc(N2CCC(N3CCC[C@H](Nc4c(F)cc(S(C)(=O)=O)cc4F)C3=O)CC2)n1 [Example 62, (S)-3-((2,6-difluoro-4-(methylsulfonyl)phenyl)amino)-1′-(3-(1,1-difluoroethyl)-1,2,4-oxadiazol-5-yl)-[1,4′-bipiperidin]-2-one]	16.2 nmol	2.6
CS(=O)(=O)c1cc(F)c(N[C@H]2CCCN(C3CCN(c4noc(C(F)F)n4)CC3)C2=O)c(F)c1 [Example 32, (S)-3-(2,6-difluoro-4-(methylsulfonyl)phenylamino)-1′-(5-(difluoromethyl)-1,2,4-oxadiazol-3-yl)-1,4′-bipiperidin-2-one]	7.9 nmol	2.4
CS(=O)(=O)c1ccc(N[C@H]2CCN(C3CCN(c4noc(C(Cl)(Cl)Cl)n4)CC3)C2=O)c(F)c1 [Example 13, (S)-3-(2-fluoro-4-(methylsulfonyl)phenylamino)-1-(1-(5-(trichloromethyl)-1,2,4-oxadiazol-3-yl)piperidin-4-yl)pyrrolidin-2-one]	17.3 nmol	3.0
CS(=O)(=O)c1ccc(N[C@H]2CCN(C3CCN(c4noc(C(F)(F)F)n4)CC3)C2=O)c(F)c1 [Example 16, (S)-3-(2-fluoro-4-(methylsulfonyl)phenylamino)-1-(1-(5-(trifluoromethyl)-1,2,4-oxadiazol-3-yl)piperidin-4-yl)pyrrolidin-2-one]	17.0 nmol	4.3
CS(=O)(=O)c1ccc(N[C@H]2CCN(C3CCN(c4noc(CC(F)(F)F)n4)CC3)C2=O)c(F)c1 [Example 36, (S)-3-(2-fluoro-4-(methylsulfonyl)phenylamino)-1-(1-(5-(2,2,2-trifluoroethyl)-1,2,4-oxadiazol-3-yl)piperidin-4-yl)pyrrolidin-2-one]	9.9 nmol	4.3
CCc1noc(N2CCC(N3CC[C@H](Oc4ccc(S(C)(=O)=O)cc4F)C3=O)CC2)n1 [Example 6, (S)-1-(1-(3-ethyl-1,2,4-oxadiazol-5-yl)piperidin-4-yl)-3-(2-fluoro-4-(methylsulfonyl)phenoxy)pyrrolidin-2-one]	22.5 nmol	4.9
CC(C)(C)c1noc(N2CCC(N3CC[C@H](Oc4cc(F)c(S(C)(=O)=O)cc4F)C3=O)CC2)n1 [Example 3, (S)-1-(1-(3-tert-butyl-1,2,4-oxadiazol-5-yl)piperidin-4-yl)-3-(2,5-difluoro-4-(methylsulfonyl)phenoxy)pyrrolidin-2-one]	21.7 nmol	3.3
CC(C)(C)c1noc(N2CCC(N3CC[C@H](Oc4ccc(S(C)(=O)=O)cc4F)C3=O)CC2)n1 [Example 5, (S)-1-(1-(3-tert-butyl-1,2,4-oxadiazol-5-yl)piperidin-4-yl)-3-(2-fluoro-4-(methylsulfonyl)phenoxy)pyrrolidin-2-one]	22.7 nmol	4.8
CS(=O)(=O)c1cc(F)c(O[C@H]2CCN(C3CCN(c4noc(-c5ccccc5)n4)CC3)C2=O)cc1F [Example 17, (S)-3-(2,5-difluoro-4-(methylsulfonyl)phenoxy)-1-(1-(5-phenyl-1,2,4-oxadiazol-3-yl)piperidin-4-yl)pyrrolidin-2-one]	28.3 nmol	4.8
CS(=O)(=O)c1cc(F)c(O[C@H]2CCN(C3CCN(c4noc(C(F)(F)F)n4)CC3)C2=O)cc1F [Example 27, (S)-3-(2,5-difluoro-4-(methylsulfonyl)phenoxy)-1-(1-(5-(trifluoromethyl)-1,2,4-oxadiazol-3-yl)piperidin-4-yl)pyrrolidin-2-one]	98.9 nmol	5.1
CS(=O)(=O)c1ccc(N[C@H]2CCN(C3CCN(c4noc(C5(C(F)(F)F)CC5)n4)CC3)C2=O)c(F)c1 [Example 46, (S)-3-(2-fluoro-4-(methylsulfonyl)-phenylamino)-1-(1-(5-(1-(trifluoromethyl)-cyclopropyl)-1,2,4-oxadiazol-3-yl)piperidin-4-yl)pyrrolidin-2-one]	8.2 nmol	2.7
CC(C)c1nc(N2CCC(N3CC[C@H](Oc4cc(F)c(S(C)(=O)=O)cc4F)C3=O)CC2)no1 [Example 19, (S)-3-(2,5-difluoro-4-(methylsulfonyl)phenoxy)-1-(1-(5-isopropyl-1,2,4-oxadiazol-3-yl)piperidin-4-yl)pyrrolidin-2-one]	24.9 nmol	4.1
CC(F)(F)c1nc(N2CCC(N3CC[C@H](Oc4cc(F)c(S(C)(=O)=O)cc4F)C3=O)CC2)no1 [Example 52, (S)-3-(2,5-difluoro-4-(methylsulfonyl)phenoxy)-1-(1-(5-(1,1-difluoroethyl)-1,2,4-oxadiazol-3-yl)piperidin-4-yl)pyrrolidin-2-one]	15.5 nmol	5.8
